Paper PMC11111408, “Concurrent inhibition of oncogenic and wild-type RAS-GTP for cancer therapy” (Nature, 2024)
Where two headings read alike, the source gives them in different places.

System: panel of 183 cancer cell lines
Experiment: Cell panel of 183 cancer cell lines, viability (CTG) at Crown Bioscience
Format: cell-based
Conditions: Homo sapiens
From the text: The panel consisted of cell lines with any substitution at position 12 of KRAS, NRAS or HRAS (KRAS(G12X), NRAS(G12X), HRAS(G12X)); substitutions in KRAS, NRAS or HRAS at any position other than 12, 13 and 61 (KRAS(other/VUS), NRAS(other/VUS), HRAS(other/VUS)); other oncogenic mutations in the RAS pathway (ABL1, ALK, ARAF, BRAF, CBL, EGFR, ERBB2, ERBB3, ERBB4, ERRFI1, FGFR1, FGFR2, FGFR3, FGFR4, FLT3, HRAS, IGF1R, JAK2, KIT, MAP2K1, MAP2K2, MAPK1, MET, NF1, NRAS, NTRK1, NTRK2, NTRK3, PDGFRA, PTPN11, RAC1, RAF1, RASA1, RET, RIT1, ROS1 and SOS1); and no oncogenic mutations in the RAS pathway. […] Cells were incubated for 120 h, and cell viability was determined using the CellTiter-Glo Luminescent Cell Viability Assay (CTG) (Promega, G7572) according to the manufacturer’s instructions.

What does the source list for `CCn1c(-c2cc(N3CCN(C4CC4)CC3)cnc2[C@H](C)OC)c2c3cc(ccc31)-c1csc(n1)C[C@H](NC(=O)[C@H]1[C@@H]3COC[C@@H]31)C(=O)N1CCC[C@H](N1)C(=O)OCC(C)(C)C2` [RMC-7977]?
EC50 (read-out: RMC-7977 EC50 (M), HEP3B217, RAS pathway WT, Liver): 9.36e-09 M; EC50 (read-out: RMC-7977 EC50 (M), HM7, KRAS G12D, Large intestine/Colorectum): 1.86e-08 M; EC50 (read-out: RMC-7977 EC50 (M), HS852T, NRAS G12V, Skin): 4.07e-08 M; EC50 (read-out: RMC-7977 EC50 (M), HUH28, PTPN11 mut, Liver/Bile duct): 3.91e-08 M; EC50 (read-out: RMC-7977 EC50 (M), KG1, FGFR fusion, Blood/leukemia): 9.16e-09 M; EC50 (read-out: RMC-7977 EC50 (M), L82, ALK fusion, Blood/lymphoma): 2e-08 M; EC50 (read-out: RMC-7977 EC50 (M), NOZ, KRAS G12V, Liver/Bile duct): 4.17e-09 M; EC50 (read-out: RMC-7977 EC50 (M), OZ, KRAS Q61L, Liver/Bile duct): 3.55e-09 M; EC50 (read-out: RMC-7977 EC50 (M), PC9, EGFR mut, Lung): 1.56e-08 M; EC50 (read-out: RMC-7977 EC50 (M), RBE, KRAS G12V, Liver/Bile duct): 3.39e-10 M; EC50 (read-out: RMC-7977 EC50 (M), RKO, BRAF V600E, Large intestine/Colorectum): > 1e-06 M; EC50 (read-out: RMC-7977 EC50 (M), RT4, FGFR fusion, Bladder): 1.32e-08 M; EC50 (read-out: RMC-7977 EC50 (M), SCH, RAS pathway WT, Stomach): > 1e-06 M; EC50 (read-out: RMC-7977 EC50 (M), SNU719, NRAS Q61L, Stomach): 6.76e-09 M; EC50 (read-out: RMC-7977 EC50 (M), SNU2535, ALK fusion, Lung): 6.42e-09 M; EC50 (read-out: RMC-7977 EC50 (M), SNUC2A, KRAS G12D, Large intestine/Colorectum): 2.45e-09 M; EC50 (read-out: RMC-7977 EC50 (M), SR, ALK fusion, Thymus): 1.41e-08 M; EC50 (read-out: RMC-7977 EC50 (M), T24, HRAS G12V, Bladder): 1.2e-09 M; EC50 (read-out: RMC-7977 EC50 (M), T84, KRAS G13D, Large intestine/Colorectum): 5.62e-08 M; EC50 (read-out: RMC-7977 EC50 (M), TE441T, RAS pathway WT, Muscle): > 1e-06 M; EC50 (read-out: RMC-7977 EC50 (M), TJ905, NF1 LOF, Brain&Nerves): 1.06e-07 M; EC50 (read-out: RMC-7977 EC50 (M), YCC2, KRAS G12S, Stomach): 2.19e-09 M; EC50 (read-out: RMC-7977 EC50 (median), median over ALK fusion cell lines): 1.41e-08 M; EC50 (read-out: RMC-7977 EC50 (median), median over BRAF V600E cell lines): > 1e-06 M; EC50 (read-out: RMC-7977 EC50 (median), median over BRAF mut other cell lines): 7.54e-08 M; EC50 (read-out: RMC-7977 EC50 (median), median over EGFR mut cell lines): 4.52e-09 M; EC50 (read-out: RMC-7977 EC50 (median), median over ERBB3 mut cell lines): 5.92e-09 M; EC50 (read-out: RMC-7977 EC50 (median), median over FGFR fusion cell lines): 7.08e-09 M; EC50 (read-out: RMC-7977 EC50 (median), median over HRAS G12D cell lines): 8.45e-09 M; EC50 (read-out: RMC-7977 EC50 (median), median over HRAS G12V cell lines): 1.2e-09 M; EC50 (read-out: RMC-7977 EC50 (median), median over HRAS G161R cell lines): > 1e-06 M; EC50 (read-out: RMC-7977 EC50 (median), median over HRAS L133R cell lines): 1.23e-08 M; EC50 (read-out: RMC-7977 EC50 (median), median over HRAS Q61H cell lines): 4.57e-09 M; EC50 (read-out: RMC-7977 EC50 (median), median over HRAS Q61L cell lines): 1.62e-08 M; EC50 (read-out: RMC-7977 EC50 (median), median over KRAS A59T cell lines): 1.02e-09 M; EC50 (read-out: RMC-7977 EC50 (median), median over KRAS G12A cell lines): 1.2e-08 M; EC50 (read-out: RMC-7977 EC50 (median), median over KRAS G12C cell lines): 1.84e-09 M; EC50 (read-out: RMC-7977 EC50 (median), median over KRAS G12D cell lines): 2.86e-09 M; EC50 (read-out: RMC-7977 EC50 (median), median over KRAS G12R cell lines): 2.76e-09 M; EC50 (read-out: RMC-7977 EC50 (median), median over KRAS G12S cell lines): 3.21e-09 M; EC50 (read-out: RMC-7977 EC50 (median), median over KRAS G12V cell lines): 1.15e-09 M; EC50 (read-out: RMC-7977 EC50 (median), median over KRAS G13C cell lines): 1.41e-08 M; EC50 (read-out: RMC-7977 EC50 (median), median over KRAS G13D cell lines): 3.16e-08 M; EC50 (read-out: RMC-7977 EC50 (median), median over KRAS P121H cell lines): > 1e-06 M; EC50 (read-out: RMC-7977 EC50 (median), median over KRAS Q61H cell lines): > 1e-06 M; EC50 (read-out: RMC-7977 EC50 (median), median over KRAS Q61K cell lines): 3.22e-09 M; EC50 (read-out: RMC-7977 EC50 (median), median over KRAS Q61L cell lines): 9e-09 M; EC50 (read-out: RMC-7977 EC50 (median), median over KRAS R97I cell lines): 2.75e-09 M; EC50 (read-out: RMC-7977 EC50 (median), median over MET amp cell lines): 4.57e-09 M; EC50 (read-out: RMC-7977 EC50 (median), median over NF1 LOF cell lines): 3.25e-08 M; EC50 (read-out: RMC-7977 EC50 (median), median over NRAS G12V cell lines): 4.07e-08 M; EC50 (read-out: RMC-7977 EC50 (median), median over NRAS Q61K cell lines): 1.91e-09 M; EC50 (read-out: RMC-7977 EC50 (median), median over NRAS Q61L cell lines): 6.76e-09 M; EC50 (read-out: RMC-7977 EC50 (median), median over NRAS Q61R cell lines): 9.12e-09 M; EC50 (read-out: RMC-7977 EC50 (median), median over NRAS Y137H cell lines): 2.88e-08 M; EC50 (read-out: RMC-7977 EC50 (median), median over NTRK1 fusion cell lines): 5.14e-09 M; EC50 (read-out: RMC-7977 EC50 (median), median over PTPN11 mut cell lines): 7.95e-09 M; EC50 (read-out: RMC-7977 EC50 (median), median over RAS pathway WT cell lines): 1e-07 M; EC50 (read-out: RMC-7977 EC50 (median), median over RET fusion cell lines): 5.15e-09 M; EC50 (read-out: RMC-7977 EC50 (median), median over ROS1 fusion cell lines): 7.49e-09 M
